Laboratory results from publication PMC5773577, “Novel Miniature Membrane Active Lipopeptidomimetics against Planktonic and Biofilm Embedded Methicillin-Resistant Staphylococcus aureus” (Scientific Reports, 2018).
In brackets after ≈: the same amount, converted by molar mass. Like-named read-outs stand apart in the source and are kept apart here. Non-standard residues stand in square brackets, D forms with d. Residues, ends and D or L forms follow the SMILES beside them. No end group written: not given here. d1Nal = N[C@H](Cc1cccc2ccccc12)C(=O)O; Aoc = NCCCCCCCC(=O)O

How the values were obtained:
[1] = test system: mouse red blood cells (RBCs); test: Hemolysis assay; format: cell-based; settings: mouse RBC, up to 250 μg/mL, 1 h, 37 °C, PBS pH 7.4; 0.1% Triton X-100 = 100%; data not shown
Method: For the experiment, a previously defined procedure was used with slight modifications[67],[68]. Briefly, blood was withdrawn from mice on the day of the experiment. After washing red blood cells (RBC) twice with phosphate buffer saline (PBS: 35 mM sodium phosphate, 150 mM NaCl, pH 7.4), a 4% v/v suspension of RBC was prepared in the same buffer. In a 96-well plate, serial two-fold dilutions of desired concentrations of peptidomimetics (in PBS) were prepared (100 μL) in duplicate. To each well 100 μL of 4% v/v RBC suspension was added. The plates were incubated at 37 °C for 1 h. After 1 h, the plates were centrifuged at 1500 rpm for 10 min and 20 μL of the supernatant was transferred to a fresh 96-well plate containing 80 μL PBS. The hemoglobin release was quantified by measuring OD414 in an ELISA plate reader (Molecular Devices, Sunnyvale, CA, USA). Hemoglobin release from 0.1% Triton X-100 treated RBC was set as 100% lysis (Amax) while as negative control RBC suspended in PBS alone was used (APBS). Percentage hemolysis was calculated using the following equation:1 %hemolysis=[(Asample−APBS)/(Amax−APBS)]×100

[2] = test system: MRSA ATCC 33591; test: Resistance development over 17 serial passages at sub-MIC; format: cell-based, Staphylococcus aureus; settings: for MIC: Staphylococcus aureus
Method: For the experiment, a method as described previously was used with slight modifications. Briefly, for the experiment, on day 1 the initial MICs of all test agents were determined using routine MIC experiment protocol as described earlier. Next day, bacterial cells (100 μL) from the wells with concentrations 2–4 fold less than the MIC value for each test agent were used to set up fresh mid-log phase cultures in MHB medium for setting up the MIC plate. This was repeated for a total of 17 sub-lethal treatments with each antimicrobial agent. For every passage, corresponding glycerol stocks (15% v/v) were made for each culture and were kept at −80 °C for future use.

[3] = test system: S. aureus (ISP479R); format: cell-based, Staphylococcus aureus; settings: MHB, 2–5 × 10^5 CFU/mL, 16–18 h, 37 °C, OD600
Method: (§1) The antibacterial activity was evaluated as MIC using slight modifications to a serial broth micro dilution method as reported previously[66],[67]. Briefly, to each treatment well of the 96-well plate (Corning Incorporated, USA) 10 μL of peptidomimetic/antibiotic was added and subsequently diluted serial 2-fold in 0.2% BSA (in 0.01% acetic acid). Then to each well of the first 11 columns 100 μL of mid-log phase bacterial suspension in MHB medium was added to get 2–5 × 10^5 CFU/mL. Cultures without test peptidomimetics/antibiotics were used as growth control. Uninoculated MHB medium was used as negative control. The microtitre plates were incubated overnight with agitation (180 rpm) at 37 °C. After 16–18 h incubation, absorbance was read at 600 nm using an ELISA plate reader (Molecular Devices, Sunnyvale, CA, USA). The experiments were carried out in duplicate on at least three different days.

[4] = test system: MRSA (ATCC 43300); test: microbe, parasite or virus in culture; format: cell-based, Staphylococcus aureus; settings: MHB, 2–5 × 10^5 CFU/mL, 16–18 h, 37 °C, OD600
Method: as §1

[5] = test system: S. aureus (ISP479C); test: microbe, parasite or virus in culture; format: cell-based, Staphylococcus aureus; settings: MHB, 2–5 × 10^5 CFU/mL, 16–18 h, 37 °C, OD600
Method: as §1

[6] = test system: Methicillin-resistant S. epidermidis (ATCC 35984); test: microbe, parasite or virus in culture; format: cell-based, Staphylococcus epidermidis; settings: MRSE ATCC 35984; MHB, 2–5 × 10^5 CFU/mL, 16–18 h, 37 °C, OD600
Method: as §1

Compound: WRWRW-NH2 [S-1, Trp-Arg-Trp-Arg-Trp-CONH2]
- % hemolysis [1]: < 5%

Compound: N=C(N)NCCC[C@H](NC(=O)[C@@H](N)Cc1c[nH]c2ccccc12)C(=O)N[C@H](Cc1cccc2ccccc12)C(=O)N[C@@H](CCCNC(=N)N)C(=O)N[C@@H](Cc1c[nH]c2ccccc12)C(N)=O [S-3, Trp-Arg-(D-1-Nal)-Arg-Trp-CONH2] (HELM PEPTIDE1{W.R.[O=C([C@@H](Cc1cccc2ccccc12)N[*:1])[*:2]].R.W.[am]}$$$$V2.0)
- % hemolysis [1]: < 5%

Compound: O=C(O)c1cn(C2CC2)c2cc(N3CCNCC3)c(F)cc2c1=O [CIP, Ciprofloxacin]
- MIC ([2]; read-out: final MIC): 11.3 µg/mL (≈ 34.1 µM)
- MIC ([2]; read-out: initial MIC): 0.17 µg/mL (≈ 0.513 µM)
- fold increase in MIC ([2]; at 6th passage): ~16 fold
- fold increase in MIC ([2]; over 17 passages (final MIC / initial MIC)): 66.8 fold

Compound: N=C(N)NCCC[C@H](NC(=O)CCCCCCCNC(=O)[C@H](CCCNC(=N)N)NC(=O)[C@@H](N)Cc1c[nH]c2ccccc12)C(=O)N[C@@H](Cc1c[nH]c2ccccc12)C(N)=O [S-5, Trp-Arg-(8-AOA)-Arg-Trp-CONH2] (HELM PEPTIDE1{W.R.[O=C(CCCCCCCN[*:1])[*:2]].R.W.[am]}$$$$V2.0)
- % hemolysis [1]: < 5%

Compound: N=C(N)NCCC[C@H](NC(=O)[C@@H](Cc1cccc2ccccc12)NC(=O)CCCCCCCNC(=O)[C@@H](Cc1cccc2ccccc12)NC(=O)[C@@H](N)CCCNC(=N)N)C(N)=O [S-9, Arg-(D-1-Nal)-(8-AOA)-(D-1-Nal)-Arg-CONH2] (H-R[d1Nal][Aoc][d1Nal]R-NH2)
- Minimum inhibitory concentration, MIC [3]: 45.4 µg/mL (≈ 52.5 µM)
- Minimum inhibitory concentration, MIC [4]: >45.4 µg/mL
- Minimum inhibitory concentration, MIC [5]: 45.4 µg/mL (≈ 52.5 µM)
- Minimum inhibitory concentration, MIC [6]: 45.4 µg/mL (≈ 52.5 µM)
- % hemolysis [1]: < 5%
